Experimental data from patent US6448224B1, “Antibiotics and methods of using the same” (priority 1998, dated 2002).
Entries after “also recorded” stand apart in the source; their conditions may differ.

What was measured:
pneumococcal strain R6 [1] = experiment: Cell growth curves (OD 620 nm) of R6 cultures with or without test reagents; assay type: cell-based, Streptococcus pneumoniae; conditions: for ability to inhibit R6 growth (FIG. 5): 100 μM peptide added to growing R6 at OD 620 nm of 0.1
Procedure: (§1) Cell growth curves were performed in the presence or absence of the test reagents as specified. In short, samples were prepared as follows: 1 ml of a pneumococcus culture was placed into 10 ml of prewarmed Semisynthetic (C+Y) medium. The optical density (OD) of the bacteria was monitored at 620 nm until an OD of approximately 0.1 was reached. At this point the test reagents were administered to the samples. The cells were cultured for up to 11 hours at 37° Celsius, and the OD at 620 nm was monitored every hour. A decrease in OD 620 is indicative of cell lysis, an increase is indicative of bacterial growth. No change in optical density indicates growth inhibition.
(§2) The peptide having amino acid sequence SEQ ID NO:2 was chemically synthesized and tested for growth inhibiting, killing and lytic activity in Streptococcus pneumoniae cultures. To characterize the antibacterial activity of the peptide, pneumococcal strain R6 which is sensitive to penicillin was exposed to 0.1 mM of the peptide having the amino acid sequence of SEQ ID NO:2 at an optical density of 0.01 (bacterial density of 3×10^6 cfu/ml). Bacterial growth as measured by optical density was followed for 11 hours and viability was assessed by plating on blood agar. […] Four hours after the start of the experiment, the control strain grew from 3×10^6 to 1.2×10^7 cfu/ml. In contrast, four hours after addition of the peptide, the viable bacterial number decreased from 3×10^6 to 3×10^4 CFU/ml (10^3-fold lower than the control).
The fact that the peptide is active in the range below 1 μg/ml places the potency of its antibacterial effect in the same range as conventional antibiotics.
R6 with no peptide was the control and underwent exponential growth.

[2] = system: Orf W1 insertion duplication mutant of R6x; experiment: Phenotypes of the mutants: lysis, Orf W1 mutant; assay type: cell-based, S. pneumoniae
Procedure: (§3) Bacterial strains and growth conditions: The parental strain of S. pneumoniae used in these studies was R6x [Tiraby et al., Proc. Natl. Acad. Sci. USA., 70:3541-3545 (1973)], a derivative of the unencapsulated Rockefeller strain R36A [Avery et al., J. Ex. Med., 79:137-158 (1944)]. Pneumococci were routinely grown on tryptic soy agar (TSA, Difco) supplemented with sheep blood to a final concentration of 3% (v/v). For growth in liquid culture, the bacteria were grown in a semi-synthetic casein hydrolysate medium supplemented with yeast extract (C+Y, [Lacks et al., Biochem. Biophys. Acta., 39:508-517 (1960)]). For the selection and maintenance of pneumococci containing chromosomally integrated plasmids, bacteria were grown in the presence of 1 μg/ml erythomycin and/or 250 μg/ml kanamycin.
(§4) Construction of mutations: Insertion duplication mutagenesis was carried out using PCR to generate gene fragments for homologous recombination proximal to the amino terminus of Orf W1, HK or RR as follows:
OrfW1: 435 bp gene fragment spanning residues 473 (EcoR1 site) to 908 (BamH1 site) of SEQ ID NO:21.
(§5) Phenotypes of the mutants: The mutants were assessed for various physiological functions characteristic of pneumococci. This included lysis by penicillin, vancomycin, and the detergent deoxycholate (DOC). Other capabilities tested included ability to undergo natural DNA transformation (Transform) and expression of the LytA protein as assessed by Western blot. All mutants grew at the normal 30-40 minute doubling time and formed the classical diplococcal morphology.

[3] = system: pneumococcus R6, non-growing; experiment: Lysis of R6 cells under starvation conditions (medium lacking lysine); assay type: cell-based; conditions: 10×MIC penicillin and/or 0.5 mM peptide
Source text: When bacteria grow slowly or stop growing due to nutrient deprivation, they become tolerant to antibiotics of all classes. […] This prolongs the course of antibiotics needed to treat these infections. For instance, many weeks of therapy are required to treat endocarditis and osteomyelitis secondary to slowly growing bacteria. An in vitro example of phenotypic tolerance is shown in FIG. 10 where pneumococcus R6 has been transferred at time 0 to a medium lacking the essential amino acid lysine. Penicillin was added 5 min after the transfer. […] This same response is seen with the peptide.

[4] = system: HK insertion duplication mutant of R6x; experiment: Phenotypes of the mutants: lysis, HK mutant; assay type: cell-based, S. pneumoniae
Procedure: as §3, §4
HK: 411 bp gene fragment spanning residues 279 (EcoR1 site) to 690 (BamH1 site) of SEQ ID NO:13.
as §5

HK mutant strain Van S = experiment: Lysis of HK mutant VanS cells; assay type: cell-based, pneumococcus; conditions: 10×MIC penicillin and/or 0.5 mM peptide
Procedure: (§6) FIGS. 11A-11B show the effects of 10×MIC of penicillin and/or 0.5 mM of the peptide having the amino acid sequence of SEQ ID NO:2 on the lysis of clinical isolate F79 cells (FIG. 11A) and HK mutant VanS cells (FIG. 11B).
(§7) F79 is a natural isolate of pneumococcus with mutations in the HK and the ABC transporter genes as determined by SSCP (see Example 11). This strain is tolerant to penicillin and vancomycin.

clinical isolate A144 [5] = experiment: Cell viability (CFU/ml) of clinical isolate A144 one hour after addition; assay type: cell-based, pneumococcus; conditions: 10×MIC penicillin, 10×MIC vancomycin or 0.4 mM peptide
Source text: (§8) Tolerance to penicillin occurs in bacteria that fail to trigger autolysins in response to the drug. […] This is a mechanism of resistance to these drugs and is a serious emerging medical problem. […] However, one pneumococcal strain that fails to lyse and dies slowly in response to both penicillin and vancomycin is the clinical isolate A144. This combination of traits makes A144 recalcitrant to therapy. FIG. 8 compares the activity of penicillin, vancomycin, and the peptide against a classical sensitive strain, R6, and the tolerant strain A144. […] In contrast, strain A144 loses only 0.5 logs of viability in the same time period for all three therapies. […] Thereafter the bacteria grew more slowly than untreated controls.

[6] = system: loss of function mutants of the ABC transporter and RR/HK; experiment: Tolerance of loss of function mutants in ABC transporter and RR/HK to antibiotics; assay type: cell-based, S. pneumoniae; conditions: all 3 mutants; growth inhibitory concentrations
Source text: As described in Example 6, using insertion duplication mutagenesis, loss of function mutations were obtained in each of the 3 open reading frames of the ABC transporter and each of the two parts of the RR/HK. […] These parallel phenotypes further implicate these topographically close genes in a common pathway.
Vancomycin is the only antibiotic that maintains efficacy against many strains of highly antibiotic resistant bacteria, such as staphylococci, enterococci and pneumococci. Escape from antibiotic activity of vancomycin has been detected in rare staphylococci and enterococci but not in pneumococci as yet. […] Infect. Dis. J., 12:196-200 (1993); Marton et al., J. Infect. Dis., 163:542-8 (1991); and Bradley et al., Pediatr. Infect. Dis., 14:1037-1041(1995)]. […] If they created a phenotype which was corrected by exogenous peptide, they may participate in the biological activity of the peptide. For instance, the ABC transporter may transport the peptide and the HK may serve as an extracellular receptor for the peptide which then changes the behavior of the bacteria (i.e. killing) via a RR signal.

[7] = system: clinical isolate F79 (mutations in HK and ABC transporter genes); experiment: Lysis of clinical isolate F79 cells; assay type: cell-based, pneumococcus; conditions: 10×MIC penicillin and/or 0.5 mM peptide
Procedure: as §6, §7

[8] = system: RR insertion duplication mutant of R6x; experiment: Phenotypes of the mutants: lysis, RR mutant; assay type: cell-based, S. pneumoniae
Procedure: as §3, §4
RR: 371 bp gene fragment spanning residues 142 (EcoR1 site) to 513 (BamH1 site) of SEQ ID NO:15.
as §5

mutant in ORF WI = experiment: Antibacterial activity of the peptide in mutants: growth inhibition, ORF W1 mutant; assay type: cell-based, S. pneumoniae; conditions: peptide added from the outside
Source text: (§9) To test this hypothesis the ability of the peptide having the amino acid sequence of SEQ ID NO:2 to maintain antibacterial activity in the mutants was examined. […] Furthermore, bacteria which are tolerant by virtue of phenotypic tolerance due to slow growth rate or mutations in genes other than the RR/HK will be susceptible to the antibacterial effect of the peptide.

[9] = system: Lyt-4-4 strain of Streptococcus pneumoniae (loss of LytA activity); experiment: Growth curve (OD 620 nm) of autolysin deficient strain Lyt 4-4; assay type: cell-based; conditions: 0.1 mM peptide; absence of autolytic activity
Procedure: The addition of the additives were made at time “0” hours. The strain of bacteria cultured was the Lyt-4-4 strain of Streptococcus pneumoniae which harbors a mutation leading to the loss of LytA activity. The peptide having the amino acid sequence of SEQ ID NO:2 was added as indicated at a concentration of 0.1 mM. Lyt-4-4 lacks active autolysin LytA and is therefore tolerant to penicillin treatment.
as §1
This antibacterial effect was also demonstrable in bacteria mutated so as to prevent autolysis by point mutation in the autolysin, as in the autolysin deficient strain Lyt 4-4.

clinical isolate A144 [10] = experiment: Growth of clinical isolate A144; assay type: cell-based, pneumococcus; conditions: 0.1 mM peptide added early in the growth cycle; for 4 hours
Source text: as §8

pneumococcal strain R6 [11] = experiment: Cell viability (CFU/ml) of R6, plating on blood agar; assay type: cell-based, Streptococcus pneumoniae; conditions: 0.1 mM peptide
Procedure: as §2, §8

RR/HK mutants = experiment: Antibacterial activity of the peptide in mutants: growth inhibition, RR/HK mutants; assay type: cell-based, S. pneumoniae; conditions: peptide added exogenously
Source text: as §9

Lyt 4-4 = experiment: Chain morphology of Lyt 4-4; assay type: cell-based, Streptococcus pneumoniae; conditions: 0.5 mM peptide in the medium
Source text: Loss of chain formation is a measure of antibacterial activity independent of autolysin.
Strains of pneumococcus that are tolerant to penicillin, such as Lyt 4-4, grow in long chains as compared to the diplococcal morphology of wild type pneumococci. FIG. 6A illustrates these chains, which extend to 30-50 bacteria in length.

MRKEFHNVLSAGQLLADKRPARDYN [Peptide 3]
ability to inhibit R6 growth (FIG. 5) (pneumococcal strain R6 [1]): greatly enhanced antibacterial effect

MRKEFHNVLSSGQLLADKRPARDAN [Peptide 2]
ability to inhibit R6 growth (FIG. 5) (pneumococcal strain R6 [1]): greatly decreased anti-bacterial activity

MRKEFHNVLSSGQL (listed as Streptococcus pneumoniae) [Peptide 4]
ability to inhibit R6 growth (FIG. 5) (pneumococcal strain R6 [1]): Exponential growth equal to untreated bacteria

penicillin
lysis of growing R6 (pneumococcal strain R6 [1]; 10×MIC, normal growth): lyses R6 within one hour | Lysis by [2]: tolerant | lysis response of non-growing R6 [3]: only a minimal response | viability of non-growing R6 [3]: unaffected | Lysis by [4]: tolerant | lysis / tolerance of strain Van S (HK mutant strain Van S): tolerance | loss of viability of A144 within one hour (clinical isolate A144 [5]): 0.5 logs | lysis and death / tolerance of the mutants [6]: failed to lyse and die | lysis / tolerance of F79 [7]: tolerant | Lysis by [8]: sensitive

deoxycholate [DOC]
Lysis by [2]: no | Lysis by [4]: yes | Lysis by [8]: yes

LADKRPARDYN (listed as Streptococcus pneumoniae) [Peptide 5]
ability to inhibit R6 growth (FIG. 5) (pneumococcal strain R6 [1]): Exponential growth equal to untreated bacteria

MRKEFHNVLSSGQLLADKRPARDYNRK (listed as Streptococcus pneumoniae) [Peptide 6]
ability to inhibit R6 growth (FIG. 5) (pneumococcal strain R6 [1]): the same effect

MRKEFHNVLSSGQLLADKRPARDYN (listed as Streptococcus pneumoniae) [Peptide 1]
growth inhibition of the mutant in ORF W1 (mutant in ORF WI): not able to inhibit growth | ability to inhibit R6 growth (FIG. 5) (pneumococcal strain R6 [1]): significant delay in the onset of bacterial growth | lysis (pneumococcal strain R6 [1]; 0.1 mM peptide, R6, followed for 11 hours): No lysis was detected | growth of the bacteria (optical density) (pneumococcal strain R6 [1]; 0.1 mM peptide, R6 at optical density 0.01 (3×10^6 cfu/ml), followed for 11 hours): completely inhibited growth | minimum effective concentration (MEC) (pneumococcal strain R6 [1]; R6, converted with molecular weight 2940): 0.15 to 0.3 µg/mL | minimum effective concentration (MEC) (pneumococcal strain R6 [1]; R6, optical density of the culture over 4 hours): 50 to 100 nM | dose response of antibacterial activity (pneumococcal strain R6 [1]; R6, various amounts of peptide, 4 hours): dose dependent antibacterial activity | lysis response of non-growing R6 [3]: same response | bactericidal activity in strain Lyt 4-4 [9]: demonstrable | growth of strain A144 (clinical isolate A144 [10]): significantly inhibits the growth | lysis / tolerance of strain Van S (HK mutant strain Van S): not responsive | loss of viability of A144 within one hour (clinical isolate A144 [5]): 0.5 logs | viable bacterial number lower than the control (pneumococcal strain R6 [11]; four hours): 10^3 fold | killing of R6 (FIG. 2B) (pneumococcal strain R6 [11]; listed as SEQ ID NO:2): kills the bacteria without substantial cell lysis occurring; also recorded: rapidly killed | viable bacterial number four hours after addition of the peptide (pneumococcal strain R6 [11]; start 3×10^6, control grew to 1.2×10^7 cfu/ml): 3×10^4 CFU/ml | growth inhibition of the RR/HK mutants (RR/HK mutants): did not function to inhibit the growth | chain morphology of Lyt 4-4 (Lyt 4-4; listed as SEQ ID NO.2): dissolution of the chains | chain morphology of Lyt 4-4 (Lyt 4-4; listed as the peptide): reversion of the chains to diplococci

MEFMRKEFHNVLSSGQLLADKRPARDYN (listed as Streptococcus pneumoniae) [SEQ ID NO:12]
antibacterial activity against R6 (pneumococcal strain R6 [1]): no antibacterial activity

CN[C@H](CC(C)C)C(=O)N[C@H]1C(=O)N[C@@H](CC(N)=O)C(=O)N[C@H]2C(=O)N[C@H]3C(=O)N[C@H](C(=O)N[C@H](C(=O)O)c4cc(O)cc(O)c4-c4cc3ccc4O)[C@H](O)c3ccc(c(Cl)c3)Oc3cc2cc(c3O[C@@H]2O[C@H](CO)[C@@H](O)[C@H](O)[C@H]2O[C@H]2C[C@](C)(N)[C@H](O)[C@H](C)O2)Oc2ccc(cc2Cl)[C@H]1O [Vancomycin, vancomycin]
Lysis by [2]: tolerant | Lysis by [4]: tolerant | loss of viability of A144 within one hour (clinical isolate A144 [5]): 0.5 logs | lysis and death / tolerance of the mutants [6]: exhibited tolerance | lysis / tolerance of F79 [7]: tolerant | Lysis by [8]: sensitive
